Tests used:
[1] = tested on: human tumour cell line KB; experiment: Inhibition of EGF/TGF-alpha-stimulated KB cell proliferation ([3H]-thymidine incorporation); format: cell-based; settings: TGF-alpha 10 ng/ml or EGF 20 ng/ml, serum-free, 60 hours then [3H]-thymidine 16-18 h
Method: KB cells (purchased from ATCC) were passaged in DMEM (BioWhittaker) in the presence of 10% FCS (Boehringer Mannheim), 50 μM beta-mercaptoethanol and standard antibiotics. The EGF-induced DNA synthesis was determined by measuring the incorporation of radioactively labelled thymidine as indicator of EGF/TGF-alpha-stimulated cell proliferation. To do this, the cells were washed twice and 1500 cells per well were plated out in a 96-well plate in 200 μl of IMDM (BioWhittaker) without serum in the presence of 50 μM beta-mercaptoethanol, standard antibiotics, TGF-alpha [10 ng/ml] or EGF [20 ng/ml] and of various concentrations of the substances according to the invention (triplicates, maximum DMSO concentration 1%, see proliferation t t with F/L-HERc cells). After 60 hours, [^3 H]-thymidine (0.1 μCi in 10 μl) was added for about 16-18 h.

[2] = tested on: F/L-HERc cells expressing human EGF-R; experiment: Inhibition of EGF-dependent proliferation of F/L-HERc cells; format: cell-based, murine cell line; human EGF-R; settings: EGF 20 ng/ml, 37° C., 48 hours
Description: (§1) In this case, an interleukin-3 (IL-3)-dependent cell line of murine origin was used and was genetically modified in such a way that it expresses functional human EGF-R. Proliferation of these cells, which are called F/L-HERc, can therefore be stimulated either by murine IL-3 or by EGF (see von Ruden, T. et al. in EMBO J. 7, 2749-2756 (1988) and Pierce, J. H. et al. in Science 239, […] (1988)).
(§2) The starting material for the F/L-HERc cells was the cell line FDC-P1 whose preparation has been described by Dexter, T. M. et al. in J. Exp. Med. 152, 1036-1047 (1980). However, it is also possible as an alternative to use other growth factor-dependent cells (see, for example, Pierce, J. H. et al. in Science 239, 628-631 (1988), Shibuya, H. et al. in Cell 70, 57-67 (1992) and Alexander, W. S. et al. in EMBO J. 10, 3683-3691 (1991)). Recombinant retroviruses as described in von Ruden, T. et al., EMBO J. 7, 2749-2756 (1988) Were used for expression of the human EGF-R cDNA (see Ullrich, A. et al. in Nature 309, 418-425 (1984)), with the difference that the retroviral vector LXSN (see Miller, A. D. et al. in BioTechniques 7, 980-990 (1989)) was employed for expression of the EGF-R cDNA, and the line GP+E86 (see Markowitz, D. et al. in J. Virol. 62, 1120-1124 (1988)) was used as packaging cell.
(§3) F/L-HERc cells were cultivated in RPMI/1640 medium (BioWhittaker), supplemented with 10% fetal calf serum (FCS, Boehringer Mannheim), 2 mM glutamine (BioWhittaker), standard antibiotics and 20 ng/ml human EGF (Promega), at 37° C. and 5% CO2. To investigate the inhibitor activity of the compounds according to the invention, 1.5×10^4 cells were cultivated in the above medium (200 μl) per well in triplicates in 96-well plates, stimulating proliferation of the cells either with EGF (20 ng/ml) or with murine IL-3. The source used for IL-3 was culture supernatants from the cell line X63/0 mIL-3 (see Karasuyama, H. et al. in Eur. J. Immunol. 18, 97-104 (1988)). The compounds according to the invention were dissolved in 100% dimethyl sulphoxide (DMSO) and added in various dilutions to the cultures, with the maximum DMSO concentration being 1%. The cultures were incubated at 37° C. for 48 hours.
(§4) To determine the inhibitory activity of the compounds according to the invention, the relative cell count was measured in O.D. units using the Cell Titre 96™ AQueous Non-Radioactive Cell Proliferation Assay (Promega). The relative cell count was calculated as a percent of the control (F/L-HERc cells without inhibitor), and the concentration of active substance which inhibits the proliferation of the cells by 50% (IC50) was inferred.

F/L-HERc cells = experiment: Inhibition of IL-3-dependent proliferation of F/L-HERc cells; format: cell-based; settings: Mus musculus, murine IL-3, 37° C., 48 hours
Description: as §1, §2, §3, §4

Row | SMILES | IC50 [1] | IC50 [2] | IC50 (F/L-HERc cells)
1 | CC(CN1CCCCC1)Nc1ncc2ncnc(Nc3ccc(F)c(Cl)c3)c2n1 (stereo not drawn) [1(20), 4-[(3-Chloro-4-fluorophenyl)amino]-6-[1-(1-piperidinyl)-2-propylamino]pyrimido[5,4-d]pyrimidine] | 0.1 to 1 µM | 0.225 µM | > 1 µM
2 | CCN(CC)CC(C)Nc1ncc2ncnc(Nc3ccc(F)c(Cl)c3)c2n1 (stereo not drawn) [1(21), 4-[(3-Chloro-4-fluorophenyl)amino]-6-[1-(N,N-diethylamino)-2-propylamino]pyrimido[5,4-d]pyrimidine] | 0.1 to 1 µM | 0.3 µM | > 1 µM
3 | NCC1CCC(CNc2ncc3ncnc(Nc4ccc(F)c(Cl)c4)c3n2)CC1 (stereo not drawn) [1(22), 4-[(3-Chloro-4-fluorophenyl)amino]-6-[4-(aminomethyl)cyclohexylmethylamino]pyrimido[5,4-d]pyrimidine] | 0.1 to 1 µM | 0.043 µM | > 1 µM
